Data: publication PMC11011441, “Bioactive Compounds and Potential Health Benefits through Cosmetic Applications of Cherry Stem Extract” (International Journal of Molecular Sciences, 2024)

How the values were obtained:
Assay type in all cases: biochemical
[1] = test system: elastase; assay: Elastase inhibition (MeOSuc-Ala-Ala-Pro-Val-pNa hydrolysis); conditions: at 51.26 mg/L
Protocol: (§1) The potential of cherry stem extract to inhibit hyaluronidase (HYALase), collagenase, elastase, tyrosinase, and xanthine oxidase enzymes was evaluated. The methods were carried out following previous studies.
The assessment of elastase enzyme inhibition was based on the release of p-nitroaniline resulting from the hydrolysis of the substrate MeOSuc-Ala-Ala-Pro-Val-pNa by elastase. The quantity of p-nitroaniline was gauged through absorbance readings at 405 nm. Elastatinal (ELA) was employed as the control for elastase inhibition. The control result was stated as % inhibition.
(§2) Results for cherry stem extract were presented as IC50 values at various extract concentrations, except for the enzyme tyrosinase, which was presented as IC55 value at various extract concentrations. All evaluations were performed in triplicate.

[2] = Superoxide radical scavenging (reduction of NBT to diformazan)
Protocol: (§3) The ability of cherry stem extract to inhibit superoxide radical (O2^·−), hypochlorous acid (HOCl), and nitric oxide (NO^·) was evaluated. […] The scavenging properties of cherry stem extract and positive controls against the O2^·− radical were assessed colorimetrically by reduction of NBT to diformazan purple. The ability of the cherry stem extract to inhibit HOCl by inducing the oxidation of DHR to rhodamine was determined. The scavenging activity of cherry stem extract against NO^· was determined by oxidation of DAF-2. To assess the inhibition of O2^·−, NO^·, and HOCl radicals, epicatechin (EPI) and gallic acid (GA) were employed as reference controls. All results were expressed as IC50 value using different concentrations of cherry stem extract and all measurements were performed in triplicate.

[3] = Nitric oxide scavenging (oxidation of DAF-2); conditions: radical scavenging
Protocol: as §3

[4] = Hypochlorous acid scavenging (oxidation of DHR to rhodamine); conditions: radical scavenging
Protocol: as §3

[5] = test system: hyaluronidase (HYALase); assay: HYALase inhibition assay (turbidity at 600 nm)
Protocol: The potential of cherry stem extract to inhibit hyaluronidase ([…]), collagenase, elastase, tyrosinase, and xanthine oxidase enzymes was evaluated. The methods were carried out following previous studies. The […] inhibition assay involves quantifying the reduction in transmitted light intensity caused by particles generated from the breakdown of hyaluronic acid (HYAL) by the […] enzyme. Absorbance readings were taken at 600 nm. EPI and GA were employed as controls to evaluate […] inhibition. The outcomes from the EPI and GA controls were reported as IC20 values. Results for cherry stem extract were presented as IC50 values at various extract concentrations, except for the enzyme tyrosinase, which was presented as IC55 value at various extract concentrations. All evaluations were performed in triplicate.

[6] = test system: tyrosinase; assay: Tyrosinase inhibition (Colorimetric Tyrosinase Inhibitor Detection Kit); conditions: at 21.3 mg/L
Protocol: The potential of cherry stem extract to inhibit hyaluronidase ([…]), collagenase, elastase, tyrosinase, and xanthine oxidase enzymes was evaluated. The methods were carried out following previous studies. The evaluation of tyrosinase inhibition was conducted using a “Colorimetric Tyrosinase Inhibitor Detection Kit” sourced from Sigma-Aldrich, USA. Inhibition control was established with kojic acid (KA). The control outcome was represented as % inhibition. Results for cherry stem extract were presented as IC50 values at various extract concentrations, except for the enzyme tyrosinase, which was presented as IC55 value at various extract concentrations. All evaluations were performed in triplicate.

[7] = target: collagenase; assay: Collagenase inhibition (FALGPA degradation)
Protocol: as §1
The evaluation of collagenase enzyme activity is based on the colorimetric analysis of the degradation of the FALGPA substrate by the enzyme. The absorbance measurements were taken at 335 nm. Phenanthroline (PHE) was used as the control to assess collagenase inhibition, and the IC50 value was quantified as the control.
as §2

Structure (SMILES)	O2^·− inhibitory concentration at 50% [2] [mg/L]	NO^· inhibitory concentration at 50% [3] [mg/L]	HOCl inhibitory concentration at 50% [4] [mg/L]	HYALase inhibitory concentration at 20% (IC20) [5]	other results
CC(C)C[C@H](NC(=O)N[C@H](C(=O)N[C@@H](CCC(N)=O)C(=O)N[C@@H](C)C=O)[C@@H]1CCNC(=N)N1)C(=O)O [ELA, elastatinal]	–	–	–	–	Elastase % inhibition [1]: 53 ± 5 ^4%
Oc1cc(O)c2c(c1)O[C@H](c1ccc(O)c(O)c1)[C@H](O)C2 [EPI, epicatechin]	70 ± 5	0.87 ± 0.02	0.18 ± 0.01	167 ± 6 ^5 mg/L	–
O=C(O)c1cc(O)c(O)c(O)c1 [GA, gallic acid]	50 ± 3	1.4 ± 0.3	3.8 ± 0.3	102 ± 4 ^5 mg/L	–
O=c1cc(CO)occ1O [KA, Kojic acid]	–	–	–	–	Tyrosinase % inhibition [6]: 49 ± 6 ^3%
c1cnc2c(c1)ccc1cccnc12 [PHE, 1, 10-phenanthroline]	–	–	–	–	Collagenase inhibitory concentration at 50% [7]: 83 ± 2 mg/L
